# Results taken from ChEMBL document CHEMBL5260849, “Current advances in Vibrio harveyi quorum sensing as drug discovery targets” (Eur J Med Chem, 2020).
# pIC50: −log10 of the molar value.
# Target: T1, Autoinducer 1 sensor kinase/phosphatase LuxN (Vibrio harveyi, UniProt P0C5S6)
# T1 sequence (P0C5S6 whole entry): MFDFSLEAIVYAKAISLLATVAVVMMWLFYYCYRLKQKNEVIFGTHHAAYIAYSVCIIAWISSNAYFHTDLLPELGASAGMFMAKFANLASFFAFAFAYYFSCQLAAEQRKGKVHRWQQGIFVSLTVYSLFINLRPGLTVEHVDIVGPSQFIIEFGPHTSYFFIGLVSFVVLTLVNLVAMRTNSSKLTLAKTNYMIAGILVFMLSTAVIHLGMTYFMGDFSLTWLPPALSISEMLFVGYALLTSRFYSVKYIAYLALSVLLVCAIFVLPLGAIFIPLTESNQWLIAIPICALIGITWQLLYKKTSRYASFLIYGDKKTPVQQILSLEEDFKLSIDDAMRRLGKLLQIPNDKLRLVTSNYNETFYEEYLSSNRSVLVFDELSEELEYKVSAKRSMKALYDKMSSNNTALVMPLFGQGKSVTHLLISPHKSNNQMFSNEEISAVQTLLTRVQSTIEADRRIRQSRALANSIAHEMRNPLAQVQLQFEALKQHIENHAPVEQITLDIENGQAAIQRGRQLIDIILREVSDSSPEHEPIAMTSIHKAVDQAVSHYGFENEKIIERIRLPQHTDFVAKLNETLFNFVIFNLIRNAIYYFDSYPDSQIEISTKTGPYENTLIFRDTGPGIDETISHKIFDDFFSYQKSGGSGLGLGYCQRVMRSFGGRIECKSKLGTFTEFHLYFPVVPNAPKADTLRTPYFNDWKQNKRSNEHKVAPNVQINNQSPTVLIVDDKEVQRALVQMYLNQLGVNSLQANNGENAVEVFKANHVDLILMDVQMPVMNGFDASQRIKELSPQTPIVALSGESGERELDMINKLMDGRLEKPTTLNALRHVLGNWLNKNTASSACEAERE
# Test: Antagonist activity at LuxN signaling in Vibrio harveyi HLS253 assessed as inhibition of 3-hydroxybutanoyl homoserine lactone induced bioluminescence by autoinducer based bioluminescence assay
# Conditions: not given
row,Compound,pIC50
1,CC(=O)N1CCc2cc(S(=O)(=O)NC(CC(C)C)C(=O)CCc3ccc(O)cc3)ccc21 (configuration not stated),5.57
2,O=C(c1ccc(O)cc1)c1ccc(S(=O)(=O)c2ccc(O)cc2)cc1,5.59

# Target: LuxP/Q (Vibrio harveyi, UniProt P54300+P54302)
# Test: Antagonist activity against LuxPQ quorum sensing system in Vibrio harveyi MM32 assessed as inhibition of luminescence intensity incubated for 3 to 4 hrs by luminescence microplate reader analysis
# Type: protein-complex assay
# Conditions: not given
# Sequence of LuxP/Q (P54300 whole entry): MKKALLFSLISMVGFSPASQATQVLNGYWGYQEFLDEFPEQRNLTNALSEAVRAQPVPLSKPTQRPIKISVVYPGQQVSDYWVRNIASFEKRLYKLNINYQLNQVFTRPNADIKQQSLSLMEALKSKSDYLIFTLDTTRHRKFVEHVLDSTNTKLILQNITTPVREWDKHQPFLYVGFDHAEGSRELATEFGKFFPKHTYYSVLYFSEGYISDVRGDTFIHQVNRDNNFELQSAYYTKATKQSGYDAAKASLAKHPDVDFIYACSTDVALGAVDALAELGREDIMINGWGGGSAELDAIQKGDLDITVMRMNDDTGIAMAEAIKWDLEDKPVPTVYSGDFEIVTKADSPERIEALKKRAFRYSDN
# Sequence of LuxP/Q (P54302 whole entry): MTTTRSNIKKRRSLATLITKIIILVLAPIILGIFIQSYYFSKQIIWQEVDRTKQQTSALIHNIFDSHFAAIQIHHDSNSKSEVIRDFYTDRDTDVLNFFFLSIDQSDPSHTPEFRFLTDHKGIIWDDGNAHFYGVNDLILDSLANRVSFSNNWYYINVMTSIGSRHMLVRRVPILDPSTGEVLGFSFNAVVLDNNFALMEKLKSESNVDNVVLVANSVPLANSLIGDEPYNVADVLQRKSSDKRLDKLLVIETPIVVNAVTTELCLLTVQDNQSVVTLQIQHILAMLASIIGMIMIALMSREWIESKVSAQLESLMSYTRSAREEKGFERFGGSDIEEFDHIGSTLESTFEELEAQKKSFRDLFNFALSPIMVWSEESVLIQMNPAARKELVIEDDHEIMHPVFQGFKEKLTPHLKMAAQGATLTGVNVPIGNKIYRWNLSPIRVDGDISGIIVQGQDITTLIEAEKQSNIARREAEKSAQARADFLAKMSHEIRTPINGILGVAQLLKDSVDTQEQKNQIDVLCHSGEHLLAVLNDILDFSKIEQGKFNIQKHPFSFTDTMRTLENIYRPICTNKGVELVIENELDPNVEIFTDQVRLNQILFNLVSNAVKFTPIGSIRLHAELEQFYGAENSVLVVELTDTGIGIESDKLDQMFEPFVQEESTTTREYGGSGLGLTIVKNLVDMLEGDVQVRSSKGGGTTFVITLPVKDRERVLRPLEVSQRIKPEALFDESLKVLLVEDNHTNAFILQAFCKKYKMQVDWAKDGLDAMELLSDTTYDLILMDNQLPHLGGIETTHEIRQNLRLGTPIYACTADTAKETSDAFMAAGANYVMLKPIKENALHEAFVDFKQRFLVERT
row,Compound,pIC50
1,N#Cc1ccc(B(O)O)cc1,5.22
2,Cc1ccc(B(O)O)c(F)c1,5.40
3,Cc1ccc(B(O)O)cc1F,5.05
4,OB(O)c1ccc(OCc2ccccc2)cc1,5.40
5,COC(=O)c1ccc(B(O)O)cc1,5.30

# Target: LuxP/Q (Vibrio harveyi) (UniProt P54300+P54302)
# Test: Antagonist activity against Vibrio harveyi BB886 LuxPQ assessed as inhibition of AI-2 induced bioluminescence at 40 uM and measured after 6 hrs by bioluminescence assay
# Type: protein-complex assay
# Conditions: not given
row,Compound,inhibition [%]
1,COc1cccc(/C=C/C(=O)N[C@H]2[C@@H](O)[C@H](n3cnc4c(N)ncnc43)O[C@@H]2CO)c1,20
2,COc1ccc(CCC(=O)NC[C@H]2[C@@H](O)[C@H](n3cnc4c(N)ncnc43)O[C@@H]2CO)cc1,20

# Same assay, conditions: filed as antagonist
row,Compound,inhibition [%]
1,COc1ccc(CCC(=O)N[C@H]2[C@@H](O)[C@H](n3cnc4c(N)ncnc43)O[C@@H]2CO)cc1,80
2,COc1ccc(CCC(=O)N[C@@H]2[C@@H](CO)OC(OC)[C@@H]2O)cc1 (some centres not stated),40
3,NC(=S)CS(=O)(=O)c1cccs1,60
4,COC(=O)c1ccc(B(O)O)cc1,> 80

# Target: Autoinducer 2-binding periplasmic protein LuxP (Vibrio harveyi) (UniProt P54300)
# Test: Antagonist activity against LuxP signalling in Vibrio harveyi BB170 assessed as inhibition of AI-2 regulated bioluminescence at 20 to 40 uM and measured after 2.5 hrs by bioluminescence assay
# Conditions: filed as antagonist, dose 20-40 µM
# Sequence of Autoinducer 2-binding periplasmic protein LuxP (Vibrio harveyi) (P54300 whole entry): as the sequence (P54300 whole entry) above
row,Compound,inhibition [%]
1,CC(C)C(=O)C(=O)C(O)CO (configuration not stated),50
2,CC(C)CC(=O)C(=O)C(O)CO (configuration not stated),50

# System: Vibrio harveyi
# Test: Inhibition of CAI-1 mediated quorum-sensing in Vibrio harveyi JMH626 assessed as inhibition of CAI-1 mediated luminescence at 2 uM by bioluminescence assay
# Conditions: not given
row,Compound,inhibition [%]
1,CCCCCCC[C@@H](C/C=C/CCC(=O)O)OC,100

# System: not listed separately
# Test: Inhibition of quorum-sensing system in Vibrio harveyi BB170 assessed as inhibition of LuxU induced bioluminescence by bioluminescence assay
# Parameters: concentration or dose not given beside the values
# Conditions: concentration not given here
row,Compound,inhibition [%]
1,O=c1cc(-c2ccc(O)cc2)oc2cc(O)cc(O)c12,60
2,O=C1CC(c2ccc(O)cc2)Oc2cc(O)cc(O)c21 (configuration not stated),80
3,COc1ccc(-c2cc(=O)c3c(OC)c(OC)c(OC)cc3o2)cc1OC,60
4,O=c1c(O)c(-c2ccc(O)cc2)oc2cc(O)cc(O)c12,> 99
5,C[C@@H]1O[C@@H](O[C@H]2[C@H](Oc3cc(O)c4c(c3)OC(c3ccc(O)cc3)CC4=O)O[C@H](CO)[C@@H](O)[C@@H]2O)[C@H](O)[C@H](O)[C@H]1O (some centres not stated),40
6,COc1ccc(C2CC(=O)c3c(O)cc(O[C@@H]4O[C@H](CO)[C@@H](O)[C@H](O)[C@H]4O[C@@H]4O[C@@H](C)[C@H](O)[C@@H](O)[C@H]4O)cc3O2)cc1O (some centres not stated),> 20
7,C[C@@H]1O[C@@H](O[C@H]2[C@H](Oc3cc(O)c4c(c3)OC(c3ccc(O)c(O)c3)CC4=O)O[C@H](CO)[C@@H](O)[C@@H]2O)[C@H](O)[C@H](O)[C@H]1O (some centres not stated),> 20
8,COc1ccc(C2CC(=O)c3c(O)cc(O[C@@H]4O[C@H](CO[C@@H]5O[C@@H](C)[C@H](O)[C@@H](O)[C@H]5O)[C@@H](O)[C@H](O)[C@H]4O)cc3O2)cc1O (some centres not stated),10
9,O=c1c(O)c(-c2ccc(O)c(O)c2)oc2cc(O)cc(O)c12,> 99

# Target: T2, Autoinducer 1 sensor kinase/phosphatase LuxN (Vibrio harveyi) (UniProt P0C5S6)
# T2 sequence (whole entry): T1 sequence (P0C5S6 whole entry)
# Test: Inhibition of LuxN quorum sensing signaling in Vibrio harveyi BB886 assessed as inhibition of N-acylhomoserine lactone (HAI-1) activity by measuring bioluminescence for every 20 mins by autoinducer bioassay
# Conditions: not given
row,Compound,inhibition [%]
1,C/C(=C\COc1c2ccoc2cc2oc(=O)ccc12)CCC(O)C(C)(C)O (configuration not stated),96.7
2,CC(C)=CCC/C(C)=C/COc1c2ccoc2cc2oc(=O)ccc12,96.7

# Target: T3, HTH-type transcriptional regulator LuxR (Vibrio harveyi) (UniProt P21308)
# T3 sequence (whole entry): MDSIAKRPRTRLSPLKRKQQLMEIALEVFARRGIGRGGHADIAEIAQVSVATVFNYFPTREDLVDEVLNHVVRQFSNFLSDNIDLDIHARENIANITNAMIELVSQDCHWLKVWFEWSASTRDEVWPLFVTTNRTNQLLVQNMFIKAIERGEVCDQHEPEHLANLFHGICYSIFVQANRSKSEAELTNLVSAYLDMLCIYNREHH
# Test: Inhibition of LuxR quorum sensing system in Vibrio harveyi BB120 assessed as inhibition of autoinducer-2 induced luxR activity at 100 uM for 16 hrs by bioluminescence assay
# Conditions: not given
row,Compound,inhibition [%]
1,O=C/C=C/c1ccc(Cl)c(C(F)(F)F)c1,97
2,CN(C)c1ccc(/C=C/C=O)cc1,17
3,CCCCCCC/C=C/C=O,90
4,CC(=O)CCc1ccccc1,13
5,CCCCCCCC/C=C/C=O,94
6,CCCCCC/C=C/C(=O)OC,59
7,CCCCC/C=C/C=O,71
8,O=C/C=C/c1ccc([N+](=O)[O-])cc1,33
9,CC(=O)C1=CCCCC1,16
10,CCCCCC/C=C/C=O,100
11,CS(=O)(=O)/C=C/c1ccccc1,73
12,COc1ccccc1/C=C/C=O,14
13,CC/C=C/C=O,58
14,CC(=O)/C=C/c1ccccc1,78
15,CCCCCC/C=C/C(=O)CO,17
16,O=C/C=C/c1ccccc1,65
17,COc1ccc(/C=C/C=O)cc1,34
18,CCCC/C=C/C(=O)O,36
19,O=C/C=C/c1ccc(Cl)c(Cl)c1,99
20,CCCCC/C=C/C(C)=O,100
21,CCCCCCCCCC/C=C/C=O,56
22,CCCCCCCCC/C=C/C=O,87
23,NC(=O)/C=C/c1ccccc1,61
24,CCC/C=C/C=O,35
25,O=C/C=C/c1ccccc1[N+](=O)[O-],62
26,O=C/C=C/c1c(F)c(F)c(F)c(F)c1F,95
27,CCCCCC/C=C/C(C)=O,100
28,CCCC/C=C/C=O,55
29,CCCC/C=C/C(C)=O,80

# System: not listed separately
# Test: Inhibition of quorum-sensing system in Vibrio harveyi BB170 assessed as inhibition of AI-2 at 0.1 to 10 uM and measured after 24 hrs by bioluminescence assay
# Conditions: dose 0.1-10 µM
row,Compound,inhibition [%]
1,CCCCC/C=C\C/C=C\CCCCCCCC(=O)O,> 99
2,CCCCCCCC/C=C\CCCCCCCC(=O)O,> 75
3,CCCCCCCCCCCCCCCC(=O)O,25
4,CCCCCCCCCCCCCCCCCC(=O)O,> 25

# System: Vibrio harveyi
# Test: Inhibition of biofilm formation in Vibrio harveyi BB120 at 500 uM for 24 hrs by crystal violet assay
# Type: functional
# Conditions: not given
row,Compound,inhibition at 500 µM [%]
1,COc1cc(O)cc([C@@H]2CC(=O)c3c(OC)cc(O)cc3O2)c1,68
2,COc1cc(/C=C/C(=O)c2c(O)cc(O)cc2OC)ccc1O,60

# Target: T1, Autoinducer 1 sensor kinase/phosphatase LuxN
# Test: Antagonist activity against Vibrio harveyi BB120 LuxN assessed as inhibition of AI-2 regulated bioluminescence and measured after 6 hrs by bioluminescence assay
# Conditions: not given
row,Compound,pIC50
1,Nc1ncnc2c1ncn2[C@@H]1O[C@H](CO)[C@@H](N)[C@H]1O,5.54
2,[N-]=[N+]=N[C@H]1[C@@H](O)[C@H](n2cnc3c(N)ncnc32)O[C@@H]1CO,5.57

# System: not listed separately
# Test: Toxicity in […] mouse with abdominal infection assessed survival rate at 4.5 microg/g,ip and measured after 4 days
# Conditions: in vivo, dose 4.5 µg/g, time 4 day
row,Compound,survival at 96 h [%]
1,CCCCC1=C(Br)/C(=C/Br)OC1=O,90

# System: not listed separately
# Test: Inhibition of quorum-sensing system in Vibrio harveyi MM32 assessed as inhibition of AI-2 mediated bioluminescence incubated for 4 to 6 hrs by bioluminescence assay
# Conditions: not given
row,Compound,pIC50
1,NC(=S)CS(=O)(=O)c1ccccn1,4.26
2,Brc1ccc2ncsc2c1,4.06
3,C=CCOC(=O)C1=CS(=O)(=O)c2ccccc21,5.51
4,CC1=CCn2nc(N)c(/N=N/c3ccccc3)c2N1,4.70
5,CSc1nccc(Oc2ccccc2Cl)n1,5.47
6,CC(C)(C)S(=O)(=O)CC#N,3.96
7,CSC1=CS(=O)(=O)c2ccccc21,4.39
8,Cn1cnnc1SCC(=O)Nc1nc2ccccc2s1,5.26
9,Brc1ccc(-c2cnco2)cc1,4.22
10,O=C(O)c1ccc(-c2c(Cl)cc([N+](=O)[O-])cc2Cl)o1,4.40
11,Fc1ccccc1-c1ccc(CNCc2ccco2)o1,4.83

# System: Vibrio harveyi
# Test: Inhibition of Vibrio harveyi BB886 LuxS assessed as inhibition of autoinducer-2 induced QS activity at 100 uM for 16 hrs by bioluminescence assay
# Conditions: not given
row,Compound,inhibition [%]
1,O=C1C=C/C(=C/Br)O1,96
